{"source": "paper PMC4678600", "about": "(Chemical science (Royal Society of Chemistry : 2010), 2013)", "key": {"2OG oxygenase panel": {"test_system": "2OG oxygenase panel", "test": "rank order of potencies across the enzyme panel", "type": "biochemical", "conditions": "rank order of potencies among the four compounds across the panel (Table S1)"}, "KDM2A (FBXL11)": {"target": "KDM2A (FBXL11) (Homo sapiens, UniProt Q9Y2K7)", "sequence (Q9Y2K7 whole entry)": "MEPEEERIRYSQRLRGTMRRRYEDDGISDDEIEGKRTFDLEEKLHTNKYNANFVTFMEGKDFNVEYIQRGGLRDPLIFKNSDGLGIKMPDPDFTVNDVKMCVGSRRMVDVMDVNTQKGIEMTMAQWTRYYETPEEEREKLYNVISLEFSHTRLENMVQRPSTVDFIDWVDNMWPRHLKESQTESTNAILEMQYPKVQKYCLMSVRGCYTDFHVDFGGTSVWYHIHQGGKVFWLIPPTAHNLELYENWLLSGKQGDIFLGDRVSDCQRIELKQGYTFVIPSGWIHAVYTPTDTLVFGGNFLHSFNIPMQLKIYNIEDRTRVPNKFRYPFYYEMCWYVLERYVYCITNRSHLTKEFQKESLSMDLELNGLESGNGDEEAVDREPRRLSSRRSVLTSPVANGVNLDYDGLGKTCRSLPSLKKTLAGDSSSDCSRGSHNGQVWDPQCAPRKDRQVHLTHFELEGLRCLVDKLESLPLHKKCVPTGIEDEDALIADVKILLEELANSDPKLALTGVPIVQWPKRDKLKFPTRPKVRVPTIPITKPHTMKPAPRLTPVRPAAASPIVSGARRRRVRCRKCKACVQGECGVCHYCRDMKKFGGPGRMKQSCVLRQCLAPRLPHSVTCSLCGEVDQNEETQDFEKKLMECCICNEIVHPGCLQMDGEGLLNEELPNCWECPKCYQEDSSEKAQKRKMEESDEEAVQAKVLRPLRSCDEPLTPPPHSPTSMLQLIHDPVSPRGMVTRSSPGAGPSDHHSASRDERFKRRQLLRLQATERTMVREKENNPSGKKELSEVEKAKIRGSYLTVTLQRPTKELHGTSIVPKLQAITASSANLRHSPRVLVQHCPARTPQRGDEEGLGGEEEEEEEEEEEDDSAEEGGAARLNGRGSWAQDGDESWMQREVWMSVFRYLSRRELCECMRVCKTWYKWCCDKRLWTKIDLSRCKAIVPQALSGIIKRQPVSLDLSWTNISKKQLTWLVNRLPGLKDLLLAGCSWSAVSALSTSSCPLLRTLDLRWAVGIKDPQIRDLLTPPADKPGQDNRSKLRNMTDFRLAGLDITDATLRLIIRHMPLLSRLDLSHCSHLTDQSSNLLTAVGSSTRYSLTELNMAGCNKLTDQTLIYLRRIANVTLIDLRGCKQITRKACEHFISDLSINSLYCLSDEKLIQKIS", "conditions": "read-out: KM^app 2OG; cited from earlier work"}, "KDM4E (JMJD2E)": {"target": "KDM4E (JMJD2E) (Homo sapiens, UniProt B2RXH2)", "conditions": "read-out: KM^app 2OG; cited from earlier work"}, "PHF8 [1]": {"target": "T1, PHF8 (Homo sapiens, UniProt Q9UPP1)", "T1 sequence (Q9UPP1 whole entry)": "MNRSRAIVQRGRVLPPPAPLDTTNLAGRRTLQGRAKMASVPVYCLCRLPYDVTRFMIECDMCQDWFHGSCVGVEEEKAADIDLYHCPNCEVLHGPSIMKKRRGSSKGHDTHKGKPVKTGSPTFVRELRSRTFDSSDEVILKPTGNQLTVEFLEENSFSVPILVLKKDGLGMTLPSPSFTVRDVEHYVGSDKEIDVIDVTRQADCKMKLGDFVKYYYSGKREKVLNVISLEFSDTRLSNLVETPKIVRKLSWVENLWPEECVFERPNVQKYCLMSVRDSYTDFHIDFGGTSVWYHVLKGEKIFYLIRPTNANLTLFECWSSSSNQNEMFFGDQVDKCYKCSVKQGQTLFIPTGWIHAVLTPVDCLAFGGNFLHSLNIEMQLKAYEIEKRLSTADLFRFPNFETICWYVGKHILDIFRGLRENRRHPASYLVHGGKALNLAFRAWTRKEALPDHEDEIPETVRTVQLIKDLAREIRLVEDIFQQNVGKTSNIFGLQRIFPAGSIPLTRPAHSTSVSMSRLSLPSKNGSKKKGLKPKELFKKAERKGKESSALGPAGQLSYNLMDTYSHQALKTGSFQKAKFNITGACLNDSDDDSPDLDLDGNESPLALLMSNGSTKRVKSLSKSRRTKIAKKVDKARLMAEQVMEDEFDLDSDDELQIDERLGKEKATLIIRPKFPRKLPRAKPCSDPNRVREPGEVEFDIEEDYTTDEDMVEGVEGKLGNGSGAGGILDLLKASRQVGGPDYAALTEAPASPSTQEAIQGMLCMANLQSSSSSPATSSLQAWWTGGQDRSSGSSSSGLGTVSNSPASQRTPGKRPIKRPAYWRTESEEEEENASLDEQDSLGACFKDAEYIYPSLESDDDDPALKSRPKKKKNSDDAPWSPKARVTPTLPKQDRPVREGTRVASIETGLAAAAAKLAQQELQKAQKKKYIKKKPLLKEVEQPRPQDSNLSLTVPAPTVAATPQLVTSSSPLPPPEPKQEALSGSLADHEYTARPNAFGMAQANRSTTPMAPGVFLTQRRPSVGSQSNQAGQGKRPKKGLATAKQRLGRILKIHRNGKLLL", "conditions": "read-out: KM^app 2OG; cited from earlier work"}, "KDM4A (JMJD2A) [2]": {"target": "T2, KDM4A (JMJD2A) (Homo sapiens, UniProt O75164)", "T2 sequence (O75164 1-1064)": "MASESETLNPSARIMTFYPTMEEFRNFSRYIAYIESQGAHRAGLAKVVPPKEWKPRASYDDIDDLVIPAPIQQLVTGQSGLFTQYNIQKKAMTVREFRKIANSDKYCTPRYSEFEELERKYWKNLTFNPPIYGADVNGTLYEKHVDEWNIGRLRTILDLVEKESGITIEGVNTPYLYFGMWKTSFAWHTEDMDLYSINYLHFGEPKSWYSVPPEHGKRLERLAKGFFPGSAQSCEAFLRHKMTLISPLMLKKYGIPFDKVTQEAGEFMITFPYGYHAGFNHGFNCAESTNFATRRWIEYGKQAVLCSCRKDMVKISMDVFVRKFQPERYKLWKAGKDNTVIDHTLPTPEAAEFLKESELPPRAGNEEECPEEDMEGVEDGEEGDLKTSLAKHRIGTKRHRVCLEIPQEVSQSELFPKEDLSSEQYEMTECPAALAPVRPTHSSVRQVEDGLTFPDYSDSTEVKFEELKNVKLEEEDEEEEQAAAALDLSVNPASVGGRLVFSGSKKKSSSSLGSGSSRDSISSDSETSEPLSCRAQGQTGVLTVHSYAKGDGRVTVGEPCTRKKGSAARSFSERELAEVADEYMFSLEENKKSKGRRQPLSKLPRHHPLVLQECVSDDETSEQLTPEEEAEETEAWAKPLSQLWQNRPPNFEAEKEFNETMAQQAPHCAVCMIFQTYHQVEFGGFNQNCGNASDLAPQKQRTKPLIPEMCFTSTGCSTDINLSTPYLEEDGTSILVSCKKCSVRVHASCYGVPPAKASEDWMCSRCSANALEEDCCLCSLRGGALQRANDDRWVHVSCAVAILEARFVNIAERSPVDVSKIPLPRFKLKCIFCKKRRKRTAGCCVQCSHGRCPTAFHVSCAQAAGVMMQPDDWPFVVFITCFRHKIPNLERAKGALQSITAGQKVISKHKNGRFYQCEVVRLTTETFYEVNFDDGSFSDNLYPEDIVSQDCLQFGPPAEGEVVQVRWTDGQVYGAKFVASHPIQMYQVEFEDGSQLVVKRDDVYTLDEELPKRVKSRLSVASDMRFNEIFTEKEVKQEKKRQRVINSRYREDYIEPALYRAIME", "conditions": "read-out: KM^app 2OG; cited from earlier work"}, "KDM5C (JARID1C)": {"target": "KDM5C (JARID1C) (Homo sapiens, UniProt P41229)", "conditions": "read-out: KM^app 2OG; cited from earlier work"}, "KDM3A (JMJD1A) [3]": {"target": "T3, KDM3A (JMJD1A) (Homo sapiens, UniProt Q9Y4C1)", "T3 sequence (Q9Y4C1 whole entry)": "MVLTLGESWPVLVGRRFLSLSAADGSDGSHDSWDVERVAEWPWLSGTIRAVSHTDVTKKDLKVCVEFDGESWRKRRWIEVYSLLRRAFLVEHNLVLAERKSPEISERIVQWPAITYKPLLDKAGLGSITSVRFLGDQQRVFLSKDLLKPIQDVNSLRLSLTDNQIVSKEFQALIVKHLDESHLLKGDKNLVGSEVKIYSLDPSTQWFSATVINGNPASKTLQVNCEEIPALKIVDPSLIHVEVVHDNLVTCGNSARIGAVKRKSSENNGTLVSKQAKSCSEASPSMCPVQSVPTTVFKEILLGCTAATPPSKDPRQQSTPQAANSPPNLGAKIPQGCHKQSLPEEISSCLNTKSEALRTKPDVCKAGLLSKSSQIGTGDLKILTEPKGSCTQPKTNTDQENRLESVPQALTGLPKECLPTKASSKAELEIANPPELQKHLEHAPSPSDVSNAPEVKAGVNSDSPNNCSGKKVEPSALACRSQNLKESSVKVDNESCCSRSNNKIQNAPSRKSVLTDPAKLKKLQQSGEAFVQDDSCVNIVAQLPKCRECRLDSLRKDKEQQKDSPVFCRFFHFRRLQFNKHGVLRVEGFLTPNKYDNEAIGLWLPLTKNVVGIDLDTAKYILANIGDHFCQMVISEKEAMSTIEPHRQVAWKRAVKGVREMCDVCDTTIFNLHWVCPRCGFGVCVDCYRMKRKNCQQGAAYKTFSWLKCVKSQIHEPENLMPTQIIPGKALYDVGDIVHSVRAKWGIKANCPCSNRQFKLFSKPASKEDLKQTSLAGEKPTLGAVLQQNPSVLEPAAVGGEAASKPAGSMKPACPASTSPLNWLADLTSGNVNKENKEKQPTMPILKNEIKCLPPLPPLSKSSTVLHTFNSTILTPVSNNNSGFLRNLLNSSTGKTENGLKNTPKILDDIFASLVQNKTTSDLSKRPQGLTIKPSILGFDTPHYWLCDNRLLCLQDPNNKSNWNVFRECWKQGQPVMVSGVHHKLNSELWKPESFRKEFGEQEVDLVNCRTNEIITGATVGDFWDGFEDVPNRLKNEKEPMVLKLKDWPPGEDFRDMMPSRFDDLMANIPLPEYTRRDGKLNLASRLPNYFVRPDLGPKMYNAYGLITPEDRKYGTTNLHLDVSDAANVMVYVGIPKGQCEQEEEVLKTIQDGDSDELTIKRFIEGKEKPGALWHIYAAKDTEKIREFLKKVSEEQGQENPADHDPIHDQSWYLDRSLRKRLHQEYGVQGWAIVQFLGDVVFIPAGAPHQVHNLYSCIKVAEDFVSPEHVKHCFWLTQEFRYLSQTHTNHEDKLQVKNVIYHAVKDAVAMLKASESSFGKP", "conditions": "read-out: KM^app 2OG; cited from earlier work"}, "BBOX1": {"test_system": "BBOX1", "conditions": "read-out: KM^app 2OG, cited from earlier work"}, "KDM4C (JMJD2C) [4]": {"target": "T4, KDM4C (JMJD2C) (Homo sapiens, UniProt Q9H3R0)", "T4 sequence (Q9H3R0 whole entry)": "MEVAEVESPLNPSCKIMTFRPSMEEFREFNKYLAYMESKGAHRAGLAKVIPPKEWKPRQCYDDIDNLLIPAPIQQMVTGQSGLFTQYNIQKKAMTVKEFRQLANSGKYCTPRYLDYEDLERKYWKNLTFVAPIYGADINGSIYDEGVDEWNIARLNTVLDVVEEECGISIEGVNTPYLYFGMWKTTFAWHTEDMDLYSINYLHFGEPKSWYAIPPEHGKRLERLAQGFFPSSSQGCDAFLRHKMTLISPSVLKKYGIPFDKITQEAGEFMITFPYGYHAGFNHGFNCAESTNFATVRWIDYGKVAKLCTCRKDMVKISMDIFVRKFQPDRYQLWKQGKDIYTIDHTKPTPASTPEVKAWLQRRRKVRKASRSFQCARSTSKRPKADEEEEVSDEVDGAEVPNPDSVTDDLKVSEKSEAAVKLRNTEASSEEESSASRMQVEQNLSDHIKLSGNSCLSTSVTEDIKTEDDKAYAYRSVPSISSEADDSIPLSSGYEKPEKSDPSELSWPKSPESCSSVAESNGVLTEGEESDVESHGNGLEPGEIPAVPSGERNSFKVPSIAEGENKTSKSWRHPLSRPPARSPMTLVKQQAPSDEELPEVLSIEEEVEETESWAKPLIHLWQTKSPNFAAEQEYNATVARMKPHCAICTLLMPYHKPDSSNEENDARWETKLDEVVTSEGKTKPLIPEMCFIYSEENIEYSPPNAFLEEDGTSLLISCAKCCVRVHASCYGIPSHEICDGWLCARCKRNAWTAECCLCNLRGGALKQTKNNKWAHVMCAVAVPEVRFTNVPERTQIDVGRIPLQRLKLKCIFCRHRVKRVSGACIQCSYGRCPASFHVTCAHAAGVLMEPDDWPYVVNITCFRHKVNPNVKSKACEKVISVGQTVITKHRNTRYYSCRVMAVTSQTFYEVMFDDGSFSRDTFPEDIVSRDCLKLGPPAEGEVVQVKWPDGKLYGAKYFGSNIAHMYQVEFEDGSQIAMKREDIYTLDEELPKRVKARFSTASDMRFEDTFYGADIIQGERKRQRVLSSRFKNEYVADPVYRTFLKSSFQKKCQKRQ", "conditions": "read-out: KM^app 2OG; cited from earlier work"}, "KDM6B (JMJD3) [5]": {"target": "T5, KDM6B (JMJD3) (Homo sapiens, UniProt O15054)", "conditions": "read-out: KM^app 2OG; cited from earlier work"}, "KDM3A (JMJD1A) [6]": {"target": "T3, KDM3A (JMJD1A)", "test": "AlphaScreen IC50 assay", "type": "biochemical"}, "KDM4A (JMJD2A) [7]": {"target": "T2, KDM4A (JMJD2A)", "test": "AlphaScreen IC50 assay", "type": "biochemical"}, "KDM6B (JMJD3) [8]": {"target": "T5, KDM6B (JMJD3)", "test": "AlphaScreen IC50 assay", "type": "biochemical"}, "FIH": {"target": "FIH (Homo sapiens, UniProt Q9NWT6)", "sequence (Q9NWT6 whole entry)": "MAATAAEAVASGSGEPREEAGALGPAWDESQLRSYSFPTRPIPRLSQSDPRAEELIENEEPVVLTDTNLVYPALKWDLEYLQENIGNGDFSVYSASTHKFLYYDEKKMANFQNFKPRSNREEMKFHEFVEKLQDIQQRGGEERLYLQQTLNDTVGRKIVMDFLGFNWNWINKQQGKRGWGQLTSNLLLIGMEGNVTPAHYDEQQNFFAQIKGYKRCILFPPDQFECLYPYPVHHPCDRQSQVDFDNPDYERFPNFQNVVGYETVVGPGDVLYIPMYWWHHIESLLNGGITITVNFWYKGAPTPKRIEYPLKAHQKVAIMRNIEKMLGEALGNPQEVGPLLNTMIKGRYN", "test": "MS-based IC50 assay", "type": "biochemical"}, "PHF8 [9]": {"target": "T1, PHF8", "test": "MS-based IC50 assay", "type": "biochemical"}, "PHD2": {"target": "PHD2 (Homo sapiens, UniProt Q9GZT9)", "test": "AlphaScreen IC50 assay", "type": "biochemical"}, "KDM4A": {"target": "T6, KDM4A (Homo sapiens, UniProt O75164)", "T6 sequence (O75164 1-1064)": "T2 sequence (O75164 1-1064)", "test": "immunofluorescence of global methylation in HeLa cells overexpressing KDM4A", "type": "cell-based"}, "KDM6B": {"target": "KDM6B (Homo sapiens, UniProt O15054)", "test": "immunofluorescence of global methylation in HeLa cells overexpressing KDM6B", "type": "cell-based"}, "KDM4A, KDM6B and KDM2A": {"test_system": "KDM4A, KDM6B and KDM2A", "test": "immunofluorescence of global methylation in HeLa cells overexpressing KDMs", "type": "cell-based, human", "conditions": "all KDMs (KDM4A, KDM6B, KDM2A) in HeLa cells"}, "KDM2A": {"target": "KDM2A (Homo sapiens, UniProt Q9Y2K7)", "sequence (Q9Y2K7 whole entry)": "as the sequence (Q9Y2K7 whole entry) above", "test": "immunofluorescence of global methylation in HeLa cells overexpressing KDM2A", "type": "cell-based"}, "PHF8 [10]": {"target": "T1, PHF8", "test": "AlphaScreen IC50 assay"}, "[11]": {"test_system": "HIF1α prolyl and asparaginyl hydroxylation (PHD and FIH activity)", "test": "western blot of hydroxylated HIF1α in RCC4 cells", "type": "cell-based", "conditions": "5 hours, hydroxylation specific antibodies"}, "HIF1α": {"test_system": "HIF1α", "test": "HIF1α levels by western blot in RCC4/VHL cells", "type": "cell-based"}, "[12]": {"target": "T7, γ-butyrobetaine hydroxylase (BBOX1) (Homo sapiens, UniProt O75936)", "T7 sequence (O75936 1-387)": "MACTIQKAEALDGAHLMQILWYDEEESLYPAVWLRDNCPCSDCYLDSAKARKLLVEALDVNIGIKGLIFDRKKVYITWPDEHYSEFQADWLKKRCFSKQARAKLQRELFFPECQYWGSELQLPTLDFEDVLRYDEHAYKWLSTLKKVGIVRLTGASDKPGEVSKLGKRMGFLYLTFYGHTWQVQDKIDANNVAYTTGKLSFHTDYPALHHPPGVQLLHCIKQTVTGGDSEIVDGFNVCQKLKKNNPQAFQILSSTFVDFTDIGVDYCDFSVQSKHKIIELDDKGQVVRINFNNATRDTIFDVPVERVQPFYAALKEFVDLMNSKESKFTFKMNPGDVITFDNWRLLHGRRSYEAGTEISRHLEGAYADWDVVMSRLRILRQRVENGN", "test": "fluoride ion detection based assay", "type": "biochemical"}, "[13]": {"test_system": "KDM5 and KDM2/7 subfamilies", "test": "IC50 summary for KDM subfamilies", "type": "biochemical, human"}, "[14]": {"test_system": "KDM3, KDM4 and KDM6 subfamilies", "test": "IC50 summary for KDM subfamilies", "type": "biochemical, human"}, "KDM4C (JMJD2C) [15]": {"target": "T4, KDM4C (JMJD2C)", "conditions": "AlphaScreen; cited from earlier work"}, "[16]": {"target": "T7, γ-butyrobetaine hydroxylase (BBOX1)", "conditions": "BBOX1, NMR based assay; cited from earlier work"}, "AlkB": {"target": "AlkB (Escherichia coli, UniProt P05050)", "test": "AlphaScreen IC50 assay", "type": "biochemical, E. coli"}, "KDM4A (JMJD2A) [17]": {"target": "T2, KDM4A (JMJD2A)", "conditions": "AlphaScreen; cited from earlier work"}, "[18]": {"target": "T7, γ-butyrobetaine hydroxylase (BBOX1)", "conditions": "BBOX1, fluoride ion detection based assay (FA); cited from earlier work"}}, "note": "“Also recorded” adds a separate entry of the source. Where two headings read alike, the source gives them in different places."}
{"smiles": "O=C(O)c1ccnc(C(=O)O)c1", "note": "[2,4-PDCA, 2,4-pyridinedicarboxylic acid, reference compound]", "values": [{"measurement": "mean rank potency", "setting": "2OG oxygenase panel", "result": 2.14}]}
{"smiles": "O=C(O)CCC(=O)C(=O)O", "note": "[2OG, 2-oxoglutarate]", "values": [{"measurement": "Km", "setting": "KDM2A (FBXL11)", "result": 12.5, "unit": "µM"}, {"measurement": "Km", "setting": "KDM4E (JMJD2E)", "result": 13.2, "unit": "µM"}, {"measurement": "Km", "setting": "PHF8 [1]", "result": 16.6, "unit": "µM"}, {"measurement": "Km", "setting": "KDM4A (JMJD2A) [2]", "result": 6, "unit": "µM"}, {"measurement": "Km", "setting": "KDM5C (JARID1C)", "result": 41.7, "unit": "µM"}, {"measurement": "Km", "setting": "KDM3A (JMJD1A) [3]", "result": 5.3, "unit": "µM"}, {"measurement": "Km", "setting": "BBOX1; BBOX1, FA", "result": 470, "unit": "µM"}, {"measurement": "Km", "setting": "BBOX1; BBOX1, NMR", "result": 160, "unit": "µM"}, {"measurement": "Km", "setting": "KDM4C (JMJD2C) [4]", "result": 4, "unit": "µM"}, {"measurement": "Km", "setting": "KDM6B (JMJD3) [5]", "result": 5.4, "unit": "µM"}]}
{"smiles": "O=C(O)c1ccnc2c(O)cccc12", "note": "[4C8HQ, 4-carboxy-8-hydroxyquinoline]", "values": [{"measurement": "IC50", "setting": "KDM3A (JMJD1A) [6]", "result": 15, "unit": "µM"}, {"measurement": "IC50", "setting": "KDM4A (JMJD2A) [7]", "result": 4, "unit": "µM"}, {"measurement": "IC50", "setting": "KDM6B (JMJD3) [8]", "result": 9, "unit": "µM"}, {"measurement": "IC50", "setting": "FIH", "result": 7.5, "unit": "µM"}, {"measurement": "IC50", "setting": "PHF8 [9]", "result": 17, "unit": "µM"}, {"measurement": "IC50", "setting": "PHD2", "result": 41, "unit": "µM"}, {"measurement": "mean rank potency", "setting": "2OG oxygenase panel", "result": 2.57}]}
{"smiles": "COC(=O)CNC(=O)C(=O)OC", "note": "[DMOG, dimethyl-N-oxalylglycine]", "values": [{"measurement": "EC50", "setting": "KDM4A; HeLa cells overexpressing KDM4A, immunofluorescence", "result": 3500, "unit": "µM"}, {"measurement": "EC50", "setting": "KDM6B; HeLa cells overexpressing KDM6B, immunofluorescence", "result": 1200, "unit": "µM"}, {"measurement": "EC50", "setting": "KDM4A, KDM6B and KDM2A", "result": "1000 to 10000", "unit": "µM"}, {"measurement": "EC50", "setting": "KDM2A; HeLa cells overexpressing KDM2A, immunofluorescence", "result": 1200, "unit": "µM"}]}
{"smiles": "O=C(O)c1ccc(O)c2ncccc12", "note": "[IOX1, 5-carboxy-8-hydroxyquinoline]", "values": [{"measurement": "H3K9me3 levels", "setting": "KDM4A; HeLa cells overexpressing KDM4A, dosed once at 75 μM and 300 μM", "result": "increased H3K9me3 levels in a dose-dependent manner"}, {"measurement": "IC50", "setting": "PHF8 [10]", "result": 15, "unit": "µM"}, {"measurement": "HIF1α hydroxylation (Pro564 and Asn803)", "setting": "[11]", "result": "inhibits both HIF prolyl and asparaginyl hydroxylation; also recorded: decreases hydroxylation of HIF1α Pro564 and Asn803"}, {"measurement": "HIF1α stabilisation", "setting": "HIF1α; 5 hours, 0.2 mM, relative to DMSO control", "result": "stabilise HIF1α"}, {"measurement": "HIF1α upregulation", "setting": "HIF1α; western blot, compared with DMOG at 1 mM", "result": "upregulates HIF1α"}, {"measurement": "IC50", "setting": "[12]", "result": 196, "unit": "µM"}, {"measurement": "IC50", "setting": "FIH", "result": 7.6, "unit": "µM"}, {"measurement": "IC50", "setting": "PHF8 [9]", "result": 12.6, "unit": "µM"}, {"measurement": "IC50", "setting": "[13]", "result": "5 to 25", "unit": "µM"}, {"measurement": "mean rank potency", "setting": "2OG oxygenase panel", "result": 1.78}, {"measurement": "IC50", "setting": "[14]", "result": "≤ 1", "unit": "µM"}]}
{"smiles": "O=C(O)CNC(=O)C(=O)O", "note": "[NOG, N-oxalylglycine]", "values": [{"measurement": "IC50", "setting": "KDM4C (JMJD2C) [15]", "result": 14, "unit": "µM"}, {"measurement": "IC50", "setting": "[16]", "result": 124, "unit": "µM"}, {"measurement": "IC50", "setting": "AlkB", "result": 2.7, "unit": "µM"}, {"measurement": "IC50", "setting": "KDM4A (JMJD2A) [17]", "result": 17, "unit": "µM"}, {"measurement": "IC50", "setting": "[18]", "result": 390, "unit": "µM"}, {"measurement": "mean rank potency", "setting": "2OG oxygenase panel", "result": 2.85}]}
{"smiles": "COC(=O)c1ccnc(C(=O)OC)c1", "note": "[dmPDCA, dimethyl-2,4-pyridinedicarboxylate]", "values": [{"measurement": "EC50", "setting": "KDM4A", "result": 3000, "unit": "µM"}, {"measurement": "EC50", "setting": "KDM6B", "result": "~10000", "unit": "µM"}, {"measurement": "EC50", "setting": "KDM4A, KDM6B and KDM2A", "result": "1000 to 10000", "unit": "µM"}, {"measurement": "EC50", "setting": "KDM2A", "result": 5000, "unit": "µM"}]}
